Assay results reported in ChEMBL document CHEMBL5291721, “A preclinical secondary pharmacology resource illuminates target-adverse drug reaction associations of marketed drugs” (Nat Commun, 2023).

Key:
[1] = target: T1, Androgen receptor (Homo sapiens, UniProt P10275)
T1 sequence (P10275 whole entry): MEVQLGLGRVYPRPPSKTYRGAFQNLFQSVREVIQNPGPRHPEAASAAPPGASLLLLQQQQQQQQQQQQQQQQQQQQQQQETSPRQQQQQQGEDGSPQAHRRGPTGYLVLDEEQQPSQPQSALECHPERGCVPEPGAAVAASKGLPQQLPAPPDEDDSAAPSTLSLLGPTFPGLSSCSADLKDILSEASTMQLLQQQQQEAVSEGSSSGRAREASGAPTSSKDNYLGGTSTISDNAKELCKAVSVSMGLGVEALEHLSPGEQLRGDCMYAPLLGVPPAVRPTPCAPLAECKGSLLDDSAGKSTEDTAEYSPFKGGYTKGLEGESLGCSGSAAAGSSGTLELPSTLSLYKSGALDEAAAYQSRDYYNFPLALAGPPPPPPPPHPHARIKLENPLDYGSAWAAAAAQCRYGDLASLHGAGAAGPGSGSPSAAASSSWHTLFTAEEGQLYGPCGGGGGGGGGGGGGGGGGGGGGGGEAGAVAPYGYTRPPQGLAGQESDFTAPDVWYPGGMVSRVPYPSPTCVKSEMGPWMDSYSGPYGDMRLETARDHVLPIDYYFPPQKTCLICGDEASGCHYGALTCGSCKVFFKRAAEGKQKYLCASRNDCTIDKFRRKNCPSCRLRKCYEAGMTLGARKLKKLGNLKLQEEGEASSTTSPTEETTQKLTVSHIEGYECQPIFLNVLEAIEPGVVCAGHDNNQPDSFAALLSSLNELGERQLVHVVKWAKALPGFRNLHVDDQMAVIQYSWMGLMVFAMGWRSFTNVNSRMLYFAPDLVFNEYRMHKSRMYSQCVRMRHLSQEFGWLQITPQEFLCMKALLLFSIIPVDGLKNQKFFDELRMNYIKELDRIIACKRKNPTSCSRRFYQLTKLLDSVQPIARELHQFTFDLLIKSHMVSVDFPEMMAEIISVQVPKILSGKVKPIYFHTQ

[2] = target: T2, Adenosine receptor A1 (Homo sapiens, UniProt P30542)
T2 sequence (P30542 whole entry): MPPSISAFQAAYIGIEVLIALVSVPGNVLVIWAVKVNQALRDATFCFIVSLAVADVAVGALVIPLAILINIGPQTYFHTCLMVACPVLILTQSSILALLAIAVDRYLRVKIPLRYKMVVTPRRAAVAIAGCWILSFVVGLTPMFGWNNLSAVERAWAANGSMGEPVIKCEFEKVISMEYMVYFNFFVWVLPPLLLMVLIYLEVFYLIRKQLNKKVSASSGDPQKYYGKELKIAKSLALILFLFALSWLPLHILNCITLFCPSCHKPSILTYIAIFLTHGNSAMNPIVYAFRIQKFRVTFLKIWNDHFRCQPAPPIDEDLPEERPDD

[3] = target: T3, Estrogen receptor (Homo sapiens, UniProt P03372)
T3 sequence (P03372 whole entry): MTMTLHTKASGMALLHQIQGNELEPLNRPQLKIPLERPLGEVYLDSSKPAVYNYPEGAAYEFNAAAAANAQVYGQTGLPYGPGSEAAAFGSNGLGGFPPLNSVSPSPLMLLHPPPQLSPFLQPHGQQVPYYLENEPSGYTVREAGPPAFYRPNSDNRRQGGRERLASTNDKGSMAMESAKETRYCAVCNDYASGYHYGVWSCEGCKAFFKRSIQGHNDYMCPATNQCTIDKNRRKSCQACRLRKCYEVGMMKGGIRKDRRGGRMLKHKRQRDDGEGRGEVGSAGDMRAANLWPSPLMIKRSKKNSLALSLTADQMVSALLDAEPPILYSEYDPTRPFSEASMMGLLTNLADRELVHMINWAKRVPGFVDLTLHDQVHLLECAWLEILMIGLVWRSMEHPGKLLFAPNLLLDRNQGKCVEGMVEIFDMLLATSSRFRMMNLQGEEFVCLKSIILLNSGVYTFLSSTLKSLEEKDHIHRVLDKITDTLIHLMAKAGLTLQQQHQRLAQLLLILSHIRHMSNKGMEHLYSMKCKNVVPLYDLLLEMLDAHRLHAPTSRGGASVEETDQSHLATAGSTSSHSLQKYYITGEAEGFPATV

[4] = target: 5-hydroxytryptamine receptor 2B (Homo sapiens, UniProt P41595)
[5] = target: T4, Corticotropin-releasing factor receptor 1 (Homo sapiens, UniProt P34998)
T4 sequence (P34998 whole entry): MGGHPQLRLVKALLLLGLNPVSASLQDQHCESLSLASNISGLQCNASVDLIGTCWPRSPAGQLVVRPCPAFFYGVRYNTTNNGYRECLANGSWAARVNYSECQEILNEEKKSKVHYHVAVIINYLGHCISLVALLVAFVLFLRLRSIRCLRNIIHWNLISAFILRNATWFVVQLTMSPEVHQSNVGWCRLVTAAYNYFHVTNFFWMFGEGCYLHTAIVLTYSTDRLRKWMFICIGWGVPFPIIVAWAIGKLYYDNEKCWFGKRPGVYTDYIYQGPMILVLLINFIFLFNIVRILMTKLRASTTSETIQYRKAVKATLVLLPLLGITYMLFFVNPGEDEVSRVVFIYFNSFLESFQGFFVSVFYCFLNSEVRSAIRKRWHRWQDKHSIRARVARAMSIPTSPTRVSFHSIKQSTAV

[6] = target: T5, Neuropeptide Y receptor type 2 (Homo sapiens, UniProt P49146)
T5 sequence (P49146 whole entry): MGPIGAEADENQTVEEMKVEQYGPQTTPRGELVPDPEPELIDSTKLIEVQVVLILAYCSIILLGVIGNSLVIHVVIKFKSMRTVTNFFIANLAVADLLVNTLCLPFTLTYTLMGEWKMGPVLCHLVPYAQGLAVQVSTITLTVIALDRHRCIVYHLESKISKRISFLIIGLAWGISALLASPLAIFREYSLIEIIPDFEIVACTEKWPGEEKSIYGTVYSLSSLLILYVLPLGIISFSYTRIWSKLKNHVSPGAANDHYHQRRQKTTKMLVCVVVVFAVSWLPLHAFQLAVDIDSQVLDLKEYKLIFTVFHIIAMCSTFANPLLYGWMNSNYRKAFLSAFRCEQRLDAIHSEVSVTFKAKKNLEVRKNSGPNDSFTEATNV
Note: assay procedure not described here.

Chain of 5-hydroxytryptamine receptor 2B (P41595 whole entry): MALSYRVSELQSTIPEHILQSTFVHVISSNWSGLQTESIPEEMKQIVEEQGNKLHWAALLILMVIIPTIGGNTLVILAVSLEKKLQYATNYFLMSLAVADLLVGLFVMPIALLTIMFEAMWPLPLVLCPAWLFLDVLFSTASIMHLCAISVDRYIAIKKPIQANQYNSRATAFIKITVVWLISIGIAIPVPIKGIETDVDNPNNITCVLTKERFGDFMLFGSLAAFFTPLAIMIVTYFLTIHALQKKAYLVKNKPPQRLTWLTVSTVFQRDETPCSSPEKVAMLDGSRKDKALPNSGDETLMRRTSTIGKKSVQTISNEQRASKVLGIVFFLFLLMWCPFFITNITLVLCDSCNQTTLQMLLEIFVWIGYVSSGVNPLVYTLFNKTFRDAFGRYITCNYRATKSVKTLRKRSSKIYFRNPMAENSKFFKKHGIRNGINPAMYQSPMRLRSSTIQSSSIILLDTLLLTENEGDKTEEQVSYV

Row | Compound | AC50 [1] | AC50 [2] | AC50 [3] | other results
1 | O=C(O)c1cc(/N=N/c2ccc(O)c(C(=O)O)c2)ccc1O [OLSALAZINE] | > 30 µM | – | – | –
2 | FC(F)(F)c1ccc(CNc2ccc(Cc3c[nH]c4ncc(Cl)cc34)cn2)cn1 [PEXIDARTINIB] | > 30 µM | 27.7 µM | – | –
3 | CC(C)C[C@H](NC(=O)CNC(=O)c1cc(Cl)ccc1Cl)B(O)O [IXAZOMIB] | > 30 µM | – | – | –
4 | CC(CN1CC(=O)NC(=O)C1)N1CC(=O)NC(=O)C1 (stereo not drawn) [RAZOXANE] | > 30 µM | – | – | –
5 | OC[C@H]1O[C@@H](c2ccc(F)c(Cc3cc4ccccc4s3)c2)[C@H](O)[C@@H](O)[C@@H]1O [IPRAGLIFLOZIN] | > 30 µM | – | – | –
6 | CC(C(=O)O)c1ccc2c(c1)[nH]c1ccc(Cl)cc12 (stereo not drawn) [CARPROFEN] | – | – | > 30 µM | –
7 | CN(CC1(C)CCCO1)S(=O)(=O)c1ccc(Cl)c(S(N)(=O)=O)c1 (stereo not drawn) [MEFRUSIDE] | – | > 30 µM | – | –
8 | CC[C@H](c1ccc(O)cc1)[C@@H](CC)c1ccc(O)cc1 [HEXESTROL] | 6.95 µM | – | – | –
9 | CN1CCC(=C2c3ccccc3Sc3ccccc32)CC1 [PIMETHIXENE] | > 30 µM | – | – | –
10 | OC[C@@H](O)[C@@H](O)[C@H](O)[C@@H](O)CO [SORBITOL] | – | > 30 µM | – | –
11 | CCc1nc(C(N)=O)c(Nc2ccc(N3CCC(N4CCN(C)CC4)CC3)c(OC)c2)nc1NC1CCOCC1 [GILTERITINIB] | > 30 µM | > 30 µM | – | –
12 | CC[C@H]1OC(=O)[C@H](C)C(=O)[C@H](C)[C@@H](O[C@@H]2O[C@H](C)C[C@H](N(C)C)[C@H]2O)[C@](C)(OC)C[C@@H](C)C(=O)[C@H](C)[C@H]2N(CCCCn3cnc(-c4cccnc4)c3)C(=O)O[C@]12C [TELITHROMYCIN] | – | > 30 µM | – | –
13 | CC(=O)O[C@]1(C(C)=O)CC[C@H]2[C@@H]3C=C(C)C4=CC(=O)CC[C@@H]4[C@H]3CC[C@@]21C [NOMEGESTROL ACETATE] | 0.02 µM | > 30 µM | > 30 µM | –
14 | C#C[C@]1(O)CC[C@H]2[C@@H]3CCC4=CC(=O)CC[C@@H]4[C@H]3C(=C)C[C@@]21CC [ETONOGESTREL] | – | > 30 µM | – | –
15 | OC[C@H]1O[C@@H](c2ccc(Cl)c(Cc3ccc(O[C@H]4CCOC4)cc3)c2)[C@H](O)[C@@H](O)[C@@H]1O [EMPAGLIFLOZIN] | > 30 µM | – | – | –
16 | CC(=O)Oc1cc(C(F)(F)F)ccc1C(=O)O [TRIFLUSAL] | – | > 30 µM | – | –
17 | C[C@@H]1C[C@H]2[C@@H]3CCC4=CC(=O)C=C[C@]4(C)[C@@]3(Cl)[C@@H](O)C[C@]2(C)[C@@]1(OC(=O)c1ccco1)C(=O)CCl [MOMETASONE FUROATE] | 0.0337 µM | – | – | –
18 | CC(C)c1nc(N(C)S(C)(=O)=O)nc(-c2ccc(F)cc2)c1/C=C/[C@@H](O)C[C@@H](O)CC(=O)O [ROSUVASTATIN] | – | – | > 30 µM | –
19 | O=C1C(CC[S+]([O-])c2ccccc2)C(=O)N(c2ccccc2)N1c1ccccc1 (stereo not drawn) [SULFINPYRAZONE] | – | – | > 10 µM | –
20 | N#Cc1ccc2c(c1)N(CCCN1CCC(O)CC1)c1ccccc1S2 [PERICIAZINE] | > 30 µM | > 30 µM | – | –

Row | Compound | AC50 [1] | AC50 [2] | AC50 [3] | other results
21 | CCN(CC)CCNC(=O)c1c(C)[nH]c(/C=C2\C(=O)Nc3ccc(F)cc32)c1C [SUNITINIB] | – | – | – | AC50 [4]: 0.158 µM
22 | COc1cc2nccc(Oc3ccc(NC(=O)C4(C(=O)Nc5ccc(F)cc5)CC4)cc3)c2cc1OC [CABOZANTINIB] | > 30 µM | – | – | –
23 | OC[C@H]1O[C@@](CO)(O[C@H]2O[C@H](CO)[C@@H](O)[C@H](O)[C@H]2O)[C@@H](O)[C@@H]1O [SUCROSE] | – | > 30 µM | > 30 µM | –
24 | C[C@@H](Oc1cc(-c2cnn(C3CCNCC3)c2)cnc1N)c1c(Cl)ccc(F)c1Cl [CRIZOTINIB] | – | – | – | AC50 [5]: > 30 µM; AC50 [4]: 0.316 µM; AC50 [6]: > 30 µM
25 | C/C=C/C/C=C/CCC(=O)[C@H]1O[C@H]1C(N)=O [CERULENIN] | > 30 µM | > 30 µM | – | –
26 | O=C1CCc2cc(OCCCCc3nnnn3C3CCCCC3)ccc2N1 [CILOSTAZOL] | – | – | > 30 µM | –
27 | COc1ccc(CC2c3cc(OC)c(OC)cc3CC[N+]2(C)CCC(=O)OCCCCCOC(=O)CC[N+]2(C)CCc3cc(OC)c(OC)cc3C2Cc2ccc(OC)c(OC)c2)cc1OC (stereo not drawn) | – | – | > 30 µM | –
28 | CCCC(CCC)C(=O)O [VALPROIC ACID] | – | > 30 µM | > 30 µM | AC50 [5]: > 30 µM; AC50 [4]: > 10 µM; AC50 [6]: > 30 µM
29 | CN1C(C(=O)Nc2ccccn2)=C(O)c2ccccc2S1(=O)=O [PIROXICAM] | – | > 30 µM | > 10 µM | –
30 | C=C[C@H]1C[N@@]2CC[C@H]1C[C@@H]2[C@@H](O)c1ccnc2ccc(OC)cc12 [QUINIDINE] | – | – | > 30 µM | AC50 [4]: 2 µM
31 | CCOC(=O)c1c(C)cc2c(CO)n[nH]c(=O)c2c1C [OXAGRELATE] | > 30 µM | 25.9 µM | – | –
32 | C[C@]12C=CC(=O)N[C@@H]1CC[C@@H]1[C@@H]2CC[C@]2(C)[C@@H](C(=O)Nc3cc(C(F)(F)F)ccc3C(F)(F)F)CC[C@@H]12 [DUTASTERIDE] | – | – | > 10 µM | –
33 | O=C(O)CO [GLYCOLIC ACID] | – | > 30 µM | – | –
34 | CC[C@@]1(O)C(=O)OCc2c1cc1n(c2=O)Cc2cc3c([N+](=O)[O-])cccc3nc2-1 [RUBITECAN] | – | > 30 µM | – | –
35 | CC(C)OC(=O)CCC/C=C\C[C@@H]1[C@@H](/C=C/C(F)(F)COc2ccccc2)[C@H](O)C[C@@H]1O [TAFLUPROST] | > 30 µM | – | – | –
36 | CC(C)(O)CNc1nc(Nc2ccnc(C(F)(F)F)c2)nc(-c2cccc(C(F)(F)F)n2)n1 [ENASIDENIB] | > 30 µM | 1.29 µM | – | –
37 | O=C(O)COc1ccc(C(=O)c2cccs2)c(Cl)c1Cl | > 30 µM | – | – | –
38 | CC(C)N(CCC(C(N)=O)(c1ccccc1)c1ccccn1)C(C)C (stereo not drawn) [DISOPYRAMIDE] | – | – | – | AC50 [5]: > 30 µM; AC50 [6]: > 30 µM
39 | CC[C@H](C)C[C@H](C)CCCCCCCCC(=O)N[C@H]1C[C@@H](O)[C@@H](NCCN)NC(=O)[C@@H]2[C@@H](O)CCN2C(=O)[C@H]([C@H](O)CCN)NC(=O)[C@H]([C@H](O)[C@@H](O)c2ccc(O)cc2)NC(=O)[C@@H]2C[C@@H](O)CN2C(=O)[C@H]([C@@H](C)O)NC1=O [CASPOFUNGIN] | > 30 µM | – | – | –
40 | CC(N)C12CC3CC(CC(C3)C1)C2 (stereo not drawn) [RIMANTADINE] | – | – | > 10 µM | –
